Tests used:
[1] = molecular target: T1, p110α Type Ia human PI3K (Homo sapiens, UniProt P42336); experiment: In vitro PI3K enzyme assay (AlphaScreen), Test (a); type: biochemical; settings: read-out: IC50 versus p110α Type Ia human PI3K
T1 construct: full length DNA of each of the p110α, p110β and p110δ Type Ia human PI3K p110 isoforms; 6-His; made in house; Grp1 PH domain in E. coli
Text: The assay used AlphaScreen technology (Gray et al., Analytical Biochemistry, 2003, 313: 234-245) to determine the ability of test compounds to inhibit phosphorylation by recombinant Type I PI3K enzymes of the lipid PI(4,5)P2.
DNA fragments encoding human PI3K catalytic and regulatory subunits were isolated from cDNA libraries using standard molecular biology and PCR cloning techniques. The selected DNA fragments were used to generate baculovirus expression vectors. In particular, full length DNA of each of the p110α, p110β and p110δ Type Ia human PI3K p110 isoforms (EMBL Accession Nos. HSU79143, S67334, Y10055 for p110α, p110β and p110δ respectively) were sub-cloned into a pDEST10 vector (Invitrogen Limited, Fountain Drive, Paisley, UK). The vector is a Gateway-adapted version of Fastbac 1 containing a 6-His epitope tag. […]
Biotinylated-DiC8-PI(3,4,5)P3 (50 nM; Cell Signals Inc., Catalogue No. 107), recombinant purified GST-Grp1 PH protein (2.5 nM) and AlphaScreen Anti-GST donor and acceptor beads (100 ng; Packard Bioscience Limited, Station Road, Pangbourne, Berkshire, UK, Catalogue No. 6760603M) were added and the assay plates were left for about 5 to 20 hours at room temperature in the dark. The resultant signals arising from laser light excitation at 680 nm were read using a Packard AlphaQuest instrument. […]

[2] = system: phosphorylation of Serine 473 in Akt; experiment: In vitro phospho-Ser473 Akt assay in MDA-MB-468 cells, Test (c); type: cell-based; settings: Homo sapiens, read-out: IC50, inhibition of phosphorylation of Serine 473 in Akt
Procedure: This assay determines the ability of test compounds to inhibit phosphorylation of Serine 473 in Akt as assessed using Acumen Explorer technology (TTP LabTech Limited, Royston, Herts, SG8 6EE, UK), a plate reader that can be used to rapidly quantitate features of images generated by laser-scanning.
A MDA-MB-468 human breast adenocarcinoma cell line (LGC Promochem, Teddington, Middlesex, UK, Catalogue No. HTB-132) was routinely maintained at 37° C. with 5% CO2 up to a confluency of 70-90% in DMEM containing 10% FCS and 1% L-glutamine.
For the assay, the cells were detached from the culture flask using ‘Accutase’ (Innovative Cell Technologies Inc., San Diego, Calif., USA; Catalogue No. AT104) using standard tissue culture methods and resuspended in media to give 5.5×10^4 cells per ml. Aliquots (90 μl) were seeded into each of the inner 60 wells of a black ‘Costar’ 96-well plate (Corning Inc., NY, USA; Catalogue No. 3904) to give a density of ˜5000 cells per well. Aliquots (90 μl) of culture media were placed in the outer wells to prevent edge effects. [An alternative cell handling procedure involved the maintenance of the cells in a ‘SelecT’ robotic device (The Automation Partnership, Royston, Herts SG8 5WY, UK). Cells were resuspended in media to give 5×10^4 cells per ml. Aliquots (100 μl) were seeded into the wells of a black ‘Costar’ 96-well plate.] […]

T1 sequence (P42336 whole entry, the tested form may be a part, canonical isoform): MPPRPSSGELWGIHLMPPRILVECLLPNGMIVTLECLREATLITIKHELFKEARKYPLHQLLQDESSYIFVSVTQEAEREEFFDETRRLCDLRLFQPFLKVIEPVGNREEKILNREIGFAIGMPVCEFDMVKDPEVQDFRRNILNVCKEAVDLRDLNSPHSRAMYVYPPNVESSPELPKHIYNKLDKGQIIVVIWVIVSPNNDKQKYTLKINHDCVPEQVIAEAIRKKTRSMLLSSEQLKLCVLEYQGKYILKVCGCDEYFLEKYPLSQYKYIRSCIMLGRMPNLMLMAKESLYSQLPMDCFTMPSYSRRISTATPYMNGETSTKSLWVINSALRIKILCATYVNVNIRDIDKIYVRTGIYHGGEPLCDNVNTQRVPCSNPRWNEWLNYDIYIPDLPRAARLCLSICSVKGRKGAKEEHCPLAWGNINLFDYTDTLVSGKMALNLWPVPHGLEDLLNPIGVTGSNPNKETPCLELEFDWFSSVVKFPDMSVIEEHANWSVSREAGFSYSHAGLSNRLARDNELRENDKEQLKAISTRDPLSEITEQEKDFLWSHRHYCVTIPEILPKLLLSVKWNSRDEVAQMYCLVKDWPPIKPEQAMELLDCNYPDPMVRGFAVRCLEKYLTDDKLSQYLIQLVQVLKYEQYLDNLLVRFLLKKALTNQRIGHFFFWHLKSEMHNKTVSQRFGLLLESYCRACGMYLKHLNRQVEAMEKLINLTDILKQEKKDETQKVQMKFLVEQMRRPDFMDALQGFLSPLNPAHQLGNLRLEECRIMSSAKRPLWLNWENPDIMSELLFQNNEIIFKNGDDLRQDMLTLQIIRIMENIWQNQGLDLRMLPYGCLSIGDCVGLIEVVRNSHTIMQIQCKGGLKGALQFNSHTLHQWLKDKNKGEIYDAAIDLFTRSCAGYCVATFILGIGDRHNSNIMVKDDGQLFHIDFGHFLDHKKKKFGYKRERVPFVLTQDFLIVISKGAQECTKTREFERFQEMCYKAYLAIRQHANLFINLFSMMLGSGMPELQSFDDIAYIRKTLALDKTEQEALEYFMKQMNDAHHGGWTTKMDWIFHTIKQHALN
T1 sequence (P27986 whole entry partner, the tested form may be a part, canonical isoform): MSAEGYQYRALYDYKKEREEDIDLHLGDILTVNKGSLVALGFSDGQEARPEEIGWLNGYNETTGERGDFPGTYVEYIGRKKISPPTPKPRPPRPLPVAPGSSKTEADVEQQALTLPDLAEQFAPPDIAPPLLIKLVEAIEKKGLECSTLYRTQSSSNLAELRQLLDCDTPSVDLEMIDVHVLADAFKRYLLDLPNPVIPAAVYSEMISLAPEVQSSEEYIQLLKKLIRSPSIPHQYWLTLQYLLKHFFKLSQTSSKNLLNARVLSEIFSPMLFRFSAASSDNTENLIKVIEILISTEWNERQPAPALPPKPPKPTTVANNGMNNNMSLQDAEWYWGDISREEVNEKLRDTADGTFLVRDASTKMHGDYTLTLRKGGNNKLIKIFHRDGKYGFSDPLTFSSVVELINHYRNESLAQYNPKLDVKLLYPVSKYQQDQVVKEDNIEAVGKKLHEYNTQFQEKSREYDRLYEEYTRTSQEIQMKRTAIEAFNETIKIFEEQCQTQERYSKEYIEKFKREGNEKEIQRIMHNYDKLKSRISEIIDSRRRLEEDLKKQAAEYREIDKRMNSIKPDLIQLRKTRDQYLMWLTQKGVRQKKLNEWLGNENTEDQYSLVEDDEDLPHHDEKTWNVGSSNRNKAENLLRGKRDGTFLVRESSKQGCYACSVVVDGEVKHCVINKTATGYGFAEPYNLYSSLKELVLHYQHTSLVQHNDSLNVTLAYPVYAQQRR

Structure (SMILES) | IC50 [1] [nM] | IC50 [2] [nM]
NCC(=O)N1CCC(c2cc(N3CCOCC3)nc(-n3c(C(F)F)nc4ccccc43)n2)CC1 [Example 2, 2-(2-difluoromethylbenzimidazol-1-yl)-4-(N-glycylpiperidin-4-yl)-6-morpholinopyrimidine] | ~300 | ~100
NCC(=O)N1CC=C(c2cc(N3CCOCC3)nc(-n3c(C(F)F)nc4ccccc43)n2)CC1 [Example 1, 2-(2-difluoromethylbenzimidazol-1-yl)-4-(N-glycyl-1,2,3,6-tetrahydropyridin-4-yl)-6-morpholinopyrimidine] | ~100 | ~100

From US20090233926A1, “2-BENZIMIDAZOLYL-6-MORPHOLINO-4-PIPERIDIN-4-YLPYRIMIDINE DERIVATIVES AS PI3K AND MTOR INHIBITORS FOR THE TREATMENT OF PROLIFERATIVE DISORDERS” (AstraZeneca, priority 2006, published 2009)
